# Data taken from patent publication US20030175678A1, “Methods for identifying genes regulating desired cell phenotypes” (priority 2001, published 2003).
# Tests used:
# [1] = test system: C. fascicularis suspension culture; experiment: Differential induction of EGCG in Crassula fascicularis suspension culture (HPLC); format: cell-based; settings: B49 medium, treated on day 7 following subculture
# Experimental: Differential induction of catechins in the C. fascicularis suspension culture was performed in 500 mL conical flasks containing 190 mL of either growth medium B105 (modified Gamborg's B5 medium containing 2,4-D (1 mg/L), kinetin (0.1 mg/L), coconut water (100 mL/L), glutamine (10 mM), and 3% sucrose) or a secondary metabolite production medium B49 (Gamborg's B5, 5% sucrose, no hormones), inoculated with 70 mL of 14 day old suspension culture. Cultures were grown for 14 days before harvest and processing. Further cultures grown on production medium B49 were treated using one of each of the following protocols:
# (4) A 40 mL aliquot of a day 0 suspension growing on B105 medium was transferred to a 100 mL flask. On day 3, a sterile solution of 5-azacytidine (5-AC) in water was added for a final concentration of 3×10^−5 M, and the resultant mixture was incubated for 11 days. At this point the 40 mL 5-AC-treated culture was subcultured twice before inoculating 190 mL B49 production medium in a 500 mL flask with 70 mL of day 14 suspension. The culture was then treated further according to protocol (2). […]
# Lyophilized biomass from 100 mL plant cell culture was extracted three times with 10 mL of boiling aqueous 0.2 M NaH2PO4 solution (total 30 mL). The combined, cooled, extracts were extracted with EtOAc (2×30 mL). The combined EtOAc extracts were then dried under a stream of nitrogen. The samples were dissolved in 50% aqueous acetonitrile at a concentration of 1.0 mg/mL; a 0.1 mL aliquot was transferred into a 0.25 mL glass insert to a 2 mL HPLC vial. The extraction procedure is scalable according to the initial volume of the plant-cell culture used to generate the biomass.
# HPLC analyses of compounds in plant cell culture extracts were performed in two systems. System 1 (S1) utilized a Rainin Dynamax SD-200 pumping system, a Varian Dynamax PDA-2 diode array detector, with a Waters XTerra RP 18 (5 μm, 3.0×150 mm) column. The mobile phase was composed from 0.1% acetic acid in H2O (solvent A) and 0.1% acetic acid in acetonitrile (solvent B), at a flow rate of 0.75 mL/min: after maintaining initial conditions (A:B, 95:5) for one minute post-injection, gradient elution was accomplished in a linear fashion over 30 min (to A:B, 40:60). A total of 10 μL of each sample was injected onto the column and eluates were analyzed at a wavelength of 275 nm. System 2 (S2) utilized API-electrospray-LC-MS: a Hewlett Packard series HP1100 with a Waters Xterra RP18 (3.5 μm, 2.1×100 mm) column was used as the inlet for a Micromass Platform-LC, in the positive-ion mode. […] Compounds of interest were detected at 254 nm and as single-charged species via selected-ion monitoring in the mass spectrometer. […]
# PAL, CHS, and F3-OH = experiment: Quantitative RT-PCR of PAL, CHS and F3-OH transcripts in C. barkleyi cells; format: cell-based, Crassula barkleyi; settings: after 24 hours of treatment, relative to TBP
# Experimental: Differential induction of mRNA transcripts associated with the synthesis of catechin derivatives in the C. barkleyi suspension culture (as described in Example 2) and the C. dejecta suspension culture (as described in Example 3) were performed in 250 mL conical flasks containing 100 mL of a secondary metabolite production medium B49 (Gamborg's B5, 5% sucrose, no hormones), inoculated with 16 mL of a 14 day old suspension culture (C. barkleyi) or 40 mL of a 21 day old suspension culture (C. dejecta). The cultures were incubated under low light conditions (approximately 30 lux) at 25° C.
# Induction of mRNA usually occurs within 48 hours of receipt of an inducing signal. Accordingly, samples were taken at intervals of 2, 4, 6, 10, 15, 24, and 48 hours following the above treatments. Samples, sufficient to give at least 1 mL packed cell volume, were centrifuged for five minutes at 4000 rpm and the supernatant removed. […]
# This mixture was incubated at 42° C. for 50 min then denatured at 70° C. for 15 min and stored at −20° C., after a thirty-fold dilution with distilled water. An aliquot of this reaction was then used to quantify the relative abundance of each of the three genes (PAL, CHS, F3-OH) to the invariant one (TBP), using a real time quantification PCR machine (Perkin Elmer 7700) and the previously described oligonucleotides (shown in FIG. 7) in the following conditions: […]
smiles,measurement,setting,value
CC/C=C\CC1C(=O)CCC1CC(=O)OC (centres unmarked) [methyl jasmonate],EGCG (mg/gdwt) two days after treatment,[1],67 mg/gdwt
same,"induction of transcription of PAL, CHS, and F3-OH","PAL, CHS, and F3-OH",at least twenty fold
